Laboratory results reported in patent US20250295646A1, “METHODS OF USE OF T-TYPE CALCIUM CHANNEL MODULATORS” (Praxis Precision Medicines, Inc., priority 2022, published 2025).

Key:
gamma band EEG power = assay: qEEG: eyes open / eyes closed gamma band power; type: in vivo, human; conditions: Part B, beginning at 60 mg through 120 mg
Source text: It appears a maximal effect in gamma reduction was not achieved.
The eyes open (EO) and eyes closed (EC) gamma absolute power for each individual was also estimated at specific time points across the study days.
The population PK model was used to generate Cave for NREM sigma absolute power and concentrations for EO and EC gamma absolute power. For NREM sigma absolute power, the Cave was computed for the final day of each dose level over the EEG collection interval. For EO and EC gamma absolute power, concentrations at 4 hours post-dose and 23.75 hours post-dose were generated on the final day of each dose level. The final population PKPD models for NREM sigma absolute power and EO and EC gamma absolute power were then used to generate corresponding EEG responses.

hCav3.1 = target: T1, hCav3.1 (Homo sapiens, UniProt O43497); assay: PatchXpress patch clamp, voltage dependent block (half-inactivated state); type: cell-based
T1 construct: expressed in transfected cells; host or cells: HEK-293
T1 sequence (O43497 whole entry): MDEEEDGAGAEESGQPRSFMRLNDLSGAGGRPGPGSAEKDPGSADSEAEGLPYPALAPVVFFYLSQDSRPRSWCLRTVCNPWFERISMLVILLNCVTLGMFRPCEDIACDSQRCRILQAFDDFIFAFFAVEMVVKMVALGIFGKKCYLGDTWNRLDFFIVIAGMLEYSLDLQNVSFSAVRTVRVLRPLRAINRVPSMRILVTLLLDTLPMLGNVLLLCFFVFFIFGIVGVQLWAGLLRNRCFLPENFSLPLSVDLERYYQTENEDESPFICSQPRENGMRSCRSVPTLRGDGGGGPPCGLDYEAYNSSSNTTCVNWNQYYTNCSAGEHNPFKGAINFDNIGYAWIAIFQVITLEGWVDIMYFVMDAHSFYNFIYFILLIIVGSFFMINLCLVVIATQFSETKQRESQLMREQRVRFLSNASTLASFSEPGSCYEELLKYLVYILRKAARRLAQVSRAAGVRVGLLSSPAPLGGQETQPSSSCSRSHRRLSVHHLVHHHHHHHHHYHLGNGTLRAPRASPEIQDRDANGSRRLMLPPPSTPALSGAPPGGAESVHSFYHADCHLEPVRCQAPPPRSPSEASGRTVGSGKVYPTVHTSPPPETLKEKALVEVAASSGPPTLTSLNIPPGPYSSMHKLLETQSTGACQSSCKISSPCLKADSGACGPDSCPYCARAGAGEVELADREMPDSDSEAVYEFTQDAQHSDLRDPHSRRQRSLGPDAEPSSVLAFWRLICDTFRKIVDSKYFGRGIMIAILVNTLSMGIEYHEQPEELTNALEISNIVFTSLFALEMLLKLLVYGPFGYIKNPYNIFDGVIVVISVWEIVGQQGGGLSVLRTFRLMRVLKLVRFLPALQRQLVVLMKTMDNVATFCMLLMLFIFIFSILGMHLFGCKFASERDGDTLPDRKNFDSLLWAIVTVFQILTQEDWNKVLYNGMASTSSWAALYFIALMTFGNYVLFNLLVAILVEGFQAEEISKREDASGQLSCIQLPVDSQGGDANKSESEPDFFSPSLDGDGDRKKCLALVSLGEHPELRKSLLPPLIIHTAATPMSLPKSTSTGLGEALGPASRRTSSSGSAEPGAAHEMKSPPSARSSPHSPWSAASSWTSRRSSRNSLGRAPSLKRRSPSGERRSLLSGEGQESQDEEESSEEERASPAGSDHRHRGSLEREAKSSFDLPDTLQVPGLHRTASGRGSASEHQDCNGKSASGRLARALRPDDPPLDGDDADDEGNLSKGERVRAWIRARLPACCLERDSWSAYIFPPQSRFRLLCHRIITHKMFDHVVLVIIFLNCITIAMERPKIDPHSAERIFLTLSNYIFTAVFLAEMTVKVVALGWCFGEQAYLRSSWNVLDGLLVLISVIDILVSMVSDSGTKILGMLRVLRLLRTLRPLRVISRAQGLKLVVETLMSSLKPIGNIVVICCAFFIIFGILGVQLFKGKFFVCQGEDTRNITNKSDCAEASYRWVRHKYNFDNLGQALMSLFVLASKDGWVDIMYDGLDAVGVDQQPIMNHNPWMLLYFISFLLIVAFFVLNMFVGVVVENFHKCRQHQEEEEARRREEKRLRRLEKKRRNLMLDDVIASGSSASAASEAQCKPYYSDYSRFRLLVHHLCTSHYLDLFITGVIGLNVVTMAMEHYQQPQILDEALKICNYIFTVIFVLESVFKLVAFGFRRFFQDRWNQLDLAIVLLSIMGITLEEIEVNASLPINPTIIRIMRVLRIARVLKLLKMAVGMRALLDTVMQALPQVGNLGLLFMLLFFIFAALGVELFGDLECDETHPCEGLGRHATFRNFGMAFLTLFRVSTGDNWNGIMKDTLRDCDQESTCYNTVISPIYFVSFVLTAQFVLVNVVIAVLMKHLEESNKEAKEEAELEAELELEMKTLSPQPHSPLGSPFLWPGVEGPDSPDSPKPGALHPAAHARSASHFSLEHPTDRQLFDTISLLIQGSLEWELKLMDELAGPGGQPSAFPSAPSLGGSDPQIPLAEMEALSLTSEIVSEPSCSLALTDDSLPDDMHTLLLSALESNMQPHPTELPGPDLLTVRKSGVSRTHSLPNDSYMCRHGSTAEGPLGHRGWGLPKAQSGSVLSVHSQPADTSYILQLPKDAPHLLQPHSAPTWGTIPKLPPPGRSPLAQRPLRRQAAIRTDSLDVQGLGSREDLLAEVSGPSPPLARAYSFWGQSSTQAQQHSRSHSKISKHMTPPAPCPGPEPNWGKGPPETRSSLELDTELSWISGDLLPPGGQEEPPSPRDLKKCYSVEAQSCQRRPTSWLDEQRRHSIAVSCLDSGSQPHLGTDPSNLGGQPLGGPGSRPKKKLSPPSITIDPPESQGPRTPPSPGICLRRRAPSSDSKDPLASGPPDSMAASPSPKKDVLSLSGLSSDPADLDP

With `CC(C)(C)NC(=O)CN1CCC(CNC(=O)c2cc(F)cc(Cl)c2)CC1.Cl` [compound of formula (II), N-((1-(2-(tert-butylamino)-2-oxoethyl)piperidin-4-yl)methyl)-3-chloro-5-fluorobenzamide hydrochloride] the “gamma band EEG power” value (gamma band EEG power) was “dose-related reduction” and the “tonic block/voltage dependent block (TB/VDB) ratio” value (hCav3.1) was 3.8.
